According to patent US20160151337A1, “ANNELATED PYRROLES AND THEIR USE AS CRAC INHIBITORS” (Grünenthal GmbH, priority 2013, published 2016):

Target: T1, CRAC channel (Homo sapiens, UniProt Q96D31)
T1 construct: endogenous in cells; host or cells: HEK293 (ECACC), untransfected
Test: HEK Calcium Influx Assay (FLIPR), inhibition of store-operated Ca2+ entry after thapsigargin store depletion
Format: cell-based
Conditions: 10 μM compound, HEK293 cells, read-out: % inhib. [@ 10 μM] FLIPR
Description: The effect of compounds of the invention on intracellular [Ca^2+] was tested in the HEK293 cell line (ECACC).
HEK293 cells were cultured in DMEM/F12/Glutamax (Gibco) containing 10% FCS (Gibco), and maintained at 37° C., 5% CO2. Cell were split twice a week [3*10^6 (Mon-Thu) and 1*10^6 (Thu-Mon) cells/50 ml medium in 1-175 ZK culture flasks, respectively]. Twenty four hours pre-experiment, cells were seeded on 96 well plates (Poly-D-Lysine 96 well Black/Clear Plate, BD Biocoat REF 356640) at a density of 40,000 cells/well in DMEM/F12 (Gibco) containing 10% FCS (Gibco), and maintained at 37° C., 5% CO2.
Prior to store-depletion, cell culture medium was removed and cells were loaded with the Calcium-sensitive fluorescent dye comprised within the Calcium-4-assay kit (Molecular Devices) in nominally Ca^2+-free HBS buffer (140 mM NaCl, 4 mM KCl, 0.2 mM MgCl2, 11 mM D-glucose, and 10 mM HEPES, pH 7.4) according to manufacturer's instruction for 60 min at 37° C., 5% CO2.
Passive depletion of intracellular Ca^2+-stores was then triggered by employing the SERCA inhibitor thapsigargin (2 μM final) for 10 min in the dark (RT). To prevent immediate Ca^2+-entry via the activated store-operated channels (SOCs), cells were maintained in Ca^2+-free HBS buffer comprising 100 μM EGTA during store-depletion.
Intracellular changes in [Ca^2+] were subsequently monitored with the FLIPR device (Molecular Devices). In brief, baseline imaging post-store depletion was allowed for 1 min before adjusting the extracellular buffer to 3 mM CaCl2. Increases in intracellular [Ca^2+] due to pre-activated SOC channels were monitored for 15 min until intracellular Ca^2+ levels had declined into a steady-state. Finally, compounds were administered, and Ca^2+ signals were recorded for additional 10 min.
Inhibition of endogenous SOC in HEK293 cells was quantified employing the average Ca^2+ signal measured from 9.5-10 min post-administration. Zero percent inhibition (MAX) was defined as the Ca^2+ signal recorded from wells to which DMSO-only had been added instead of compound. Hundred percent inhibition (MIN) was defined as the signal obtained from wells in which cells haven't been treated with TG prior to Ca^2+ addition and to which DMSO-only had been added instead of compound. For routine IC50 determinations of compounds, 8 concentrations of a serial dilution (1:3.16) were tested, starting off from 10 μM. Reliable IC50's could consequently be determined only, if they were at least sub 2.5-3 μM.

T1 sequence (Q96D31 whole entry): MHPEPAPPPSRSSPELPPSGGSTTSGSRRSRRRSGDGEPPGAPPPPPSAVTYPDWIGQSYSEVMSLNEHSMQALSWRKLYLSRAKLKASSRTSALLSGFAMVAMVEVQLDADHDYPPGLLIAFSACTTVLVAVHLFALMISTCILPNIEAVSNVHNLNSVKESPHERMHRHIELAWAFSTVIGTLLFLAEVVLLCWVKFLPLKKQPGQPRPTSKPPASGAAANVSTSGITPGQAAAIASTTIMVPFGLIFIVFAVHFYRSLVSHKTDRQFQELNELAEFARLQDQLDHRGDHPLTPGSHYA

## Cc1ccc(Cl)cc1N1CCc2[nH]c(-c3c(F)cccc3Cl)cc2C1=O [Example 50, 2-(2-Chloro-6-fluoro-phenyl)-5-(5-chloro-2-methyl-phenyl)-1,5,6,7-tetrahydro-pyrrolo[3,2-c]pyridin-4-one]
  inhibition at 10 µM: 50 to 70%

## COc1ncccc1-c1cc2c([nH]1)CCN(c1cnc(S(C)(=O)=O)cc1C)C2 [Example 98, 2-(2-Methoxy-pyridin-3-yl)-5-(4-methyl-6-methylsulfonyl-pyridin-3-yl)-4,5,6,7-tetrahydro-1H-pyrrolo[3,2-c]pyridine]
  inhibition at 10 µM: > 70%

## O=C1c2cc(-c3c(F)cccc3Cl)[nH]c2CCN1c1c(F)cccc1F [Example 49, 2-(2-Chloro-6-fluoro-phenyl)-5-(2,6-difluoro-phenyl)-1,5,6,7-tetrahydro-pyrrolo[3,2-c]pyridin-4-one]
  inhibition at 10 µM: > 70%

## Cc1sccc1N1CCc2[nH]c(-c3c(F)cccc3F)cc2C1 [Example 55, 2-(2,6-Difluoro-phenyl)-5-(2-methyl-thiophen-3-yl)-4,5,6,7-tetrahydro-1H-pyrrolo[3,2-c]pyridine]
  inhibition at 10 µM: > 70%

## Cc1ccc(C#N)cc1N1CCc2[nH]c(-c3c(F)cccc3F)cc2C1 [Example 29, 3-[2-(2,6-Difluoro-phenyl)-4,5,6,7-tetrahydro-1H-pyrrolo[3,2-c]pyridin-5-yl]-4-methyl-benzonitrile]
  inhibition at 10 µM: 50 to 70%

## Cc1cc(N2CCc3[nH]c(-c4c(F)cccc4Cl)cc3C2)n(C)n1 [Example 63, 2-(2-Chloro-6-fluoro-phenyl)-5-(2,5-dimethyl-2H-pyrazol-3-yl)-4,5,6,7-tetrahydro-1H-pyrrolo[3,2-c]pyridine]
  inhibition at 10 µM: > 70%

## Cc1sc(C2CC2)nc1N1CCc2[nH]c(-c3c(F)cccc3F)cc2C1=O [Example 48, 5-(2-Cyclopropyl-5-methyl-thiazol-4-yl)-2-(2,6-difluoro-phenyl)-1,5,6,7-tetrahydro-pyrrolo[3,2-c]pyridin-4-one]
  inhibition at 10 µM: > 70%

## Cc1cc(N)ncc1N1CCc2[nH]c(-c3c(F)cccc3F)cc2C1 [Example 95, [5-[2-(2,6-Difluoro-phenyl)-4,5,6,7-tetrahydro-1H-pyrrolo[3,2-c]pyridin-5-yl]-4-methyl-pyridin-2-yl]-amine]
  inhibition at 10 µM: > 70%

## Cc1sc(-c2ncco2)nc1N1CCc2[nH]c(-c3c(F)cccc3Cl)cc2C1=O [Example 53, 2-(2-Chloro-6-fluoro-phenyl)-5-(5-methyl-2-oxazol-2-yl-thiazol-4-yl)-1,5,6,7-tetrahydro-pyrrolo[3,2-c]pyridin-4-one]
  inhibition at 10 µM: > 70%

## Cc1sc(-c2cccnc2)nc1N1CCc2[nH]c(-c3c(F)cccc3F)c(CO)c2C1 [Example 85, [2-(2,6-Difluoro-phenyl)-5-(5-methyl-2-pyridin-3-yl-thiazol-4-yl)-4,5,6,7-tetrahydro-1H-pyrrolo[3,2-c]pyridin-3-yl]-methanol]
  inhibition at 10 µM: > 70%

## Cc1sccc1N1CCc2[nH]c(-c3c(F)cccc3F)cc2C1=O [Example 47, 2-(2,6-Difluoro-phenyl)-5-(2-methyl-thiophen-3-yl)-1,5,6,7-tetrahydro-pyrrolo[3,2-c]pyridin-4-one]
  inhibition at 10 µM: > 70%

## Cc1sc(-c2cccnc2)nc1N1CCc2[nH]c(-c3ccc(Cl)nc3)cc2C1=O [Example 43, 2-(6-Chloro-pyridin-3-yl)-5-(5-methyl-2-pyridin-3-yl-thiazol-4-yl)-1,5,6,7-tetrahydro-pyrrolo[3,2-c]pyridin-4-one]
  inhibition at 10 µM: 50 to 70%

## COc1cnc(C(F)(F)F)nc1N1CCc2[nH]c(-c3c(F)cccc3F)cc2C1 [Example 84, 2-(2,6-Difluoro-phenyl)-5-[5-methoxy-2-(trifluoromethyl)-pyrimidin-4-yl]-4,5,6,7-tetrahydro-1H-pyrrolo[3,2-c]pyridine]
  inhibition at 10 µM: 50 to 70%

## Cc1sc(-c2cccnc2)nc1N1CCc2[nH]c(-c3c(F)cccc3Cl)cc2C1 [Example 17, 4-[2-(2-Chloro-6-fluoro-phenyl)-4,5,6,7-tetrahydro-1H-pyrrolo[3,2-c]pyridin-5-yl]-5-methyl-2-pyridin-3-yl-thiazole]
  inhibition at 10 µM: > 70%

## Cc1cc(C(=O)N(C)C)ccc1N1CCc2[nH]c(-c3c(F)cccc3F)cc2C1 [Example 81, 4-[2-(2,6-Difluoro-phenyl)-4,5,6,7-tetrahydro-1H-pyrrolo[3,2-c]pyridin-5-yl]-N,N,3-trimethyl-benzamide]
  inhibition at 10 µM: > 70%

## Cc1c(F)cncc1N1CCc2[nH]c(-c3c(F)cccc3F)cc2C1 [Example 94, 2-(2,6-Difluoro-phenyl)-5-(5-fluoro-4-methyl-pyridin-3-yl)-4,5,6,7-tetrahydro-1H-pyrrolo[3,2-c]pyridine]
  inhibition at 10 µM: > 70%

## Cc1sccc1N1CCc2[nH]c(-c3c(F)cccc3Cl)cc2C1 [Example 60, 2-(2-Chloro-6-fluoro-phenyl)-5-(2-methyl-thiophen-3-yl)-4,5,6,7-tetrahydro-1H-pyrrolo[3,2-c]pyridine]
  inhibition at 10 µM: > 70%

## Cc1sc(-c2ncco2)nc1N1CCc2[nH]c(-c3c(F)cccc3Cl)cc2C1 [Example 62, 2-[4-[2-(2-Chloro-6-fluoro-phenyl)-4,5,6,7-tetrahydro-1H-pyrrolo[3,2-c]pyridin-5-yl]-5-methyl-thiazol-2-yl]-oxazole]
  inhibition at 10 µM: > 70%

## Cc1sc(-c2cccnc2)nc1N1CCc2[nH]c(-c3c(F)cccc3Cl)cc2C1=O [Example 42, 2-(2-Chloro-6-fluoro-phenyl)-5-(5-methyl-2-pyridin-3-yl-thiazol-4-yl)-1,5,6,7-tetrahydro-pyrrolo[3,2-c]pyridin-4-one]
  inhibition at 10 µM: > 70%

## Cc1sccc1N1CCc2[nH]c(-c3c(F)cccc3Cl)cc2C1=O [Example 51, 2-(2-Chloro-6-fluoro-phenyl)-5-(2-methyl-thiophen-3-yl)-1,5,6,7-tetrahydro-pyrrolo[3,2-c]pyridin-4-one]
  inhibition at 10 µM: > 70%

## O=C1c2cc(-c3c(F)cccc3F)[nH]c2CCN1c1c(F)cccc1F [Example 46, 2,5-Bis(2,6-difluoro-phenyl)-1,5,6,7-tetrahydro-pyrrolo[3,2-c]pyridin-4-one]
  inhibition at 10 µM: 50 to 70%

## Cc1cc(Cl)ncc1N1CCc2[nH]c(-c3ccc(F)cc3F)cc2C1=O [Example 44, 5-(6-Chloro-4-methyl-pyridin-3-yl)-2-(2,4-difluoro-phenyl)-1,5,6,7-tetrahydro-pyrrolo[3,2-c]pyridin-4-one]
  inhibition at 10 µM: 50 to 70%

## Cc1cc(N2CCc3[nH]c(-c4c(F)cccc4F)cc3C2)n(C)n1 [Example 58, 2-(2,6-Difluoro-phenyl)-5-(2,5-dimethyl-2H-pyrazol-3-yl)-4,5,6,7-tetrahydro-1H-pyrrolo[3,2-c]pyridine]
  inhibition at 10 µM: > 70%

## Cc1sc(-c2ccccn2)nc1N1CCc2[nH]c(-c3c(F)cccc3F)cc2C1=O [Example 5, 2-(2,6-Difluoro-phenyl)-5-(5-methyl-2-pyridin-2-yl-thiazol-4-yl)-1,5,6,7-tetrahydro-pyrrolo[3,2-c]pyridin-4-one]
  inhibition at 10 µM: 50 to 70%

## Cc1cc(S(C)(=O)=O)ncc1N1CCc2[nH]c(-c3snnc3C)cc2C1 [Example 89, 4-Methyl-5-[5-(4-methyl-6-methylsulfonyl-pyridin-3-yl)-4,5,6,7-tetrahydro-1H-pyrrolo[3,2-c]pyridin-2-yl]-[1,2,3]thiadiazole]
  inhibition at 10 µM: 50 to 70%

## Cc1sc(-c2ncco2)nc1N1CCc2[nH]c(-c3c(F)cccc3F)cc2C1 [Example 57, 2-[4-[2-(2,6-Difluoro-phenyl)-4,5,6,7-tetrahydro-1H-pyrrolo[3,2-c]pyridin-5-yl]-5-methyl-thiazol-2-yl]-oxazole]
  inhibition at 10 µM: > 70%

## CCn1nc(N2CCc3[nH]c(-c4c(F)cccc4F)cc3C2)cc1C1(C(F)(F)F)CC1 [Example 125, 2-(2,6-Difluoro-phenyl)-5-[1-ethyl-5-[1-(trifluoromethyl)-cyclopropyl]-1H-pyrazol-3-yl]-4,5,6,7-tetrahydro-1H-pyrrolo[3,2-c]pyridine]
  inhibition at 10 µM: > 70%

## Cc1sc(C2CC2)nc1N1CCc2[nH]c(-c3c(F)cccc3F)cc2C1 [Example 56, 2-Cyclopropyl-4-[2-(2,6-difluoro-phenyl)-4,5,6,7-tetrahydro-1H-pyrrolo[3,2-c]pyridin-5-yl]-5-methyl-thiazole]
  inhibition at 10 µM: > 70%

## Cc1sc(C2CC2)nc1N1CCc2[nH]c(-c3c(F)cccc3Cl)cc2C1 [Example 61, 4-[2-(2-Chloro-6-fluoro-phenyl)-4,5,6,7-tetrahydro-1H-pyrrolo[3,2-c]pyridin-5-yl]-2-cyclopropyl-5-methyl-thiazole]
  inhibition at 10 µM: > 70%
